Test results as given in patent publication US9187464B2, “TRPV4 antagonists” (GlaxoSmithKline Intellectual Property (No. 2) Limited, priority 2011, dated 2015).

Biological target: T1, human TRPV4 (Homo sapiens, UniProt Q9HBA0)
T1 construct: expressed in transfected cells; host or cells: HEK-293-MSR-II cells transduced with 1% BacMam virus
Assay: Ligand-gated assay (Fluo4 calcium, FLIPR; inhibition of agonist-induced activation)
Assay type: cell-based
Conditions: HEK-293-MSR-II cells transduced with BacMam human TRPV4; agonist at EC80
In short: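 Agonist (EC80) response read on FLIPR as Fluo-4 (2 uM) fluorescence after 10-min room-temperature compound exposure in HBSS/HEPES pH 7.4 with 0.01% Chaps. Cells: HEK-293-MSR-II expressing human TRPV4 via BacMam; output is IC50 of inhibition.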

T1 sequence (Q9HBA0 whole entry): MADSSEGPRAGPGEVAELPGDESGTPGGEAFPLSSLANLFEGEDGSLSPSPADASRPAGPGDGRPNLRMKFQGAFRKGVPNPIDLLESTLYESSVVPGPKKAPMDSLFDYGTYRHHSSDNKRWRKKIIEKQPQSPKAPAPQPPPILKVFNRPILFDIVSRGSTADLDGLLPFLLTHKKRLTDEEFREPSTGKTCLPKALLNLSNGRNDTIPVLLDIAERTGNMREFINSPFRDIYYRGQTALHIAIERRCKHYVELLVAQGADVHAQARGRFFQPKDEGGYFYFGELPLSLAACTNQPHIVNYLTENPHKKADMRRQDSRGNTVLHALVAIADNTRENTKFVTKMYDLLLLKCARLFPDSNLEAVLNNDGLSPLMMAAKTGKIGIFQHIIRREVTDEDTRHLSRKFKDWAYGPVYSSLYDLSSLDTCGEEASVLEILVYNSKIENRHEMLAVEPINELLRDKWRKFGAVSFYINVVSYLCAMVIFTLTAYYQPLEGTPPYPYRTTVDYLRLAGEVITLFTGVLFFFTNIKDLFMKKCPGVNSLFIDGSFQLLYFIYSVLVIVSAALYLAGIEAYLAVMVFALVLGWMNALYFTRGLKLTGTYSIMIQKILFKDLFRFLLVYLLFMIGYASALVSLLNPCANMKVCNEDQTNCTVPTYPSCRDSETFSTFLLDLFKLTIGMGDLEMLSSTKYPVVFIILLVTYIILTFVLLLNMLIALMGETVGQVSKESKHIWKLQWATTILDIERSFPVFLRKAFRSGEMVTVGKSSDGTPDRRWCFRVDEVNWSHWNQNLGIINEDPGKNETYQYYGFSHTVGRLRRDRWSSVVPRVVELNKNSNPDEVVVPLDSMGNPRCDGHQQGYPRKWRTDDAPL

| IC50 [nM] | Structure (SMILES) |
| --- | --- |
| 10 to 50 | COc1cc(OC)c(N2C[C@@]3(CCC[C@H](Cn4cnc5ccc(C#N)cc54)C3)OC2=O)cn1 [Example 141, 1-({(5S,7S)-3-[4,6-bis(methyloxy)-3-pyridinyl]-2-oxo-1-oxa-3-azaspiro[4.5]dec-7-yl}methyl)-1H-benzimidazole-6-carbonitrile] |
| 10 to 50 | CC(C)c1ccc(N2C[C@@]3(CCC[C@H](Cn4cnc5ccc(C#N)cc54)C3)OC2=O)cn1 [Example 142, 1-({(5S,7S)-3-[6-(1-methylethyl)-3-pyridinyl]-2-oxo-1-oxa-3-azaspiro[4.5]dec-7-yl}methyl)-1H-benzimidazole-6-carbonitrile] |
| 10 to 50 | COc1cc(C)c(N2C[C@@]3(CCC[C@](CO)(Cn4cnc5ccc(C#N)cc54)C3)OC2=O)cn1 [Example 143, 1-((7-(hydroxymethyl)-3-(6-methoxy-4-methylpyridin-3-yl)-2-oxo-1-oxa-3-azaspiro[4.5]decan-7-yl)methyl)-1H-benzo[d]imidazole-6-carbonitrile] |
| 0.1 to 10 | C[C@]1(Cn2cnc3ccc(C#N)cc32)CCC[C@@]2(CN(c3cnccc3C(F)(F)F)C(=O)O2)C1 [Example 144, 1-(((5S,7S)-7-methyl-2-oxo-3-(4-(trifluoromethyl)pyridin-3-yl)-1-oxa-3-azaspiro[4.5]decan-7-yl)methyl)-1H-benzo[d]imidazole-6-carbonitrile] |
| 10 to 50 | CN(C)c1ncc(N2C[C@@]3(CCC[C@](C)(Cn4cnc5ccc(C#N)cc54)C3)OC2=O)cn1 [Example 145, 1-(((5S,7S)-3-(2-(dimethylamino)pyrimidin-5-yl)-7-methyl-2-oxo-1-oxa-3-azaspiro[4.5]decan-7-yl)methyl)-1H-benzo[d]imidazole-6-carbonitrile] |
| 0.1 to 10 | Cc1ccncc1N1C[C@@]2(CCC[C@](C)(Cn3cnc4ccc(C#N)cc43)C2)OC1=O [Example 146, 1-(((5S,7S)-7-methyl-3-(4-methylpyridin-3-yl)-2-oxo-1-oxa-3-azaspiro[4.5]decan-7-yl)methyl)-1H-benzo[d]imidazole-6-carbonitrile] |
| 0.1 to 10 | CC(C)(O)c1cnc(N2C[C@@]3(CCC[C@](C)(Cn4cnc5ccc(C#N)cc54)C3)OC2=O)cn1 [Example 147, 1-(((5S,7S)-3-(5-(2-hydroxypropan-2-yl)pyrazin-2-yl)-7-methyl-2-oxo-1-oxa-3-azaspiro[4.5]decan-7-yl)methyl)-1H-benzo[d]imidazole-6-carbonitrile] |
| 10 to 50 | CC(C)(O)c1ncc(N2C[C@@]3(CCC[C@](C)(Cn4cnc5ccc(C#N)cc54)C3)OC2=O)cn1 [Example 148, 1-(((5S,7S)-3-(2-(2-hydroxypropan-2-yl)pyrimidin-5-yl)-7-methyl-2-oxo-1-oxa-3-azaspiro[4.5]decan-7-yl)methyl)-1H-benzo[d]imidazole-6-carbonitrile] |
| 50 to 500 | COc1ccncc1N1C[C@@]2(CCC[C@](C)(Cn3cnc4ccc(C#N)cc43)C2)OC1=O [Example 149, 1-(((5S,7S)-3-(4-methoxypyridin-3-yl)-7-methyl-2-oxo-1-oxa-3-azaspiro[4.5]decan-7-yl)methyl)-1H-benzo[d]imidazole-6-carbonitrile] |
| 50 to 500 | CN(C)c1cnc(N2C[C@@]3(CCC[C@](C)(Cn4cnc5ccc(C#N)cc54)C3)OC2=O)cn1 [Example 150, 1-(((5S,7S)-3-(5-(dimethylamino)pyrazin-2-yl)-7-methyl-2-oxo-1-oxa-3-azaspiro[4.5]decan-7-yl)methyl)-1H-benzo[d]imidazole-6-carbonitrile] |
| 50 to 500 | N#Cc1ccc2ncn(C[C@H]3CCC[C@]4(C3)CN(Cc3csc5ncccc35)C(=O)O4)c2c1 [Example 151, 1-{[(5S,7S)-2-oxo-3-(thieno[2,3-b]pyridin-3-ylmethyl)-1-oxa-3-azaspiro[4.5]dec-7-yl]methyl}-1H-benzimidazole-6-carbonitrile] |
| 0.1 to 10 | N#Cc1ccc2ncn(C[C@H]3CCC[C@]4(C3)CN(Cc3sc5ncccc5c3Br)C(=O)O4)c2c1 [Example 153] |
| 0.1 to 10 | COC(C)c1noc(C(C)(C)CN2C[C@@]3(CCC[C@H](Cn4cnc5ccc(C#N)cc54)C3)OC2=O)n1 (stereo partly drawn) [Example 154, 1-{[(5S,7S)-3-(2-methyl-2-{3-[1-(methyloxy)ethyl]-1,2,4-oxadiazol-5-yl}propyl)-2-oxo-1-oxa-3-azaspiro[4.5]dec-7-yl]methyl}-1H-benzimidazole-6-carbonitrile] |
| 0.1 to 10 | CCOc1cnc(CN2C[C@@]3(CCC[C@](C)(Cn4cnc5ccc(C#N)cc54)C3)OC2=O)cn1 [Example 155] |
| 0.1 to 10 | CCOc1ccnc(CN2C[C@@]3(CCC[C@](C)(Cn4cnc5ccc(C#N)cc54)C3)OC2=O)c1 [Example 156, 1-(((5S,7S)-3-((4-ethoxypyridin-2-yl)methyl)-7-methyl-2-oxo-1-oxa-3-azaspiro[4.5]decan-7-yl)methyl)-1H-benzo[d]imidazole-6-carbonitrile] |
| 0.1 to 10 | C[C@]1(Cn2cnc3ccc(C#N)cc32)CCC[C@@]2(CN(Cc3ccc(F)cn3)C(=O)O2)C1 [Example 159, 1-(((5S,7S)-3-((5-fluoropyridin-2-yl)methyl)-7-methyl-2-oxo-1-oxa-3-azaspiro[4.5]decan-7-yl)methyl)-1H-benzo[d]imidazole-6-carbonitrile] |
| 0.1 to 10 | Cn1cc(-c2ccnc(CN3C[C@@]4(CCC[C@](C)(Cn5cnc6ccc(C#N)cc65)C4)OC3=O)c2)cn1 [Example 160, 1-(((5S,7S)-7-methyl-3-((4-(1-methyl-1H-pyrazol-4-yl)pyridin-2-yl)methyl)-2-oxo-1-oxa-3-azaspiro[4.5]decan-7-yl)methyl)-1H-benzo[d]imidazole-6-carbonitrile] |
| 0.1 to 10 | Cn1cc(-c2cccc(CN3C[C@@]4(CCC[C@](C)(Cn5cnc6ccc(C#N)cc65)C4)OC3=O)n2)cn1 [Example 161, 1-(((5S,7S)-7-methyl-3-((6-(1-methyl-1H-pyrazol-4-yl)pyridin-2-yl)methyl)-2-oxo-1-oxa-3-azaspiro[4.5]decan-7-yl)methyl)-1H-benzo[d]imidazole-6-carbonitrile] |
| 0.1 to 10 | COC(C)(C)c1cnc(N2C[C@@]3(CCC[C@](C)(Cn4cnc5ccc(C#N)cc54)C3)OC2=O)cn1 [Example 162, 1-(((5S,7S)-3-(5-(2-methoxypropan-2-yl)pyrazin-2-yl)-7-methyl-2-oxo-1-oxa-3-azaspiro[4.5]decan-7-yl)methyl)-1H-benzo[d]imidazole-6-carbonitrile] |
| 0.1 to 10 | COCCOC(C)(C)c1cnc(N2C[C@@]3(CCC[C@](C)(Cn4cnc5ccc(C#N)cc54)C3)OC2=O)cn1 [Example 163, 1-(((5S,7S)-3-(5-(2-(2-methoxyethoxy)propan-2-yl)pyrazin-2-yl)-7-methyl-2-oxo-1-oxa-3-azaspiro[4.5]decan-7-yl)methyl)-1H-benzo[d]imidazole-6-carbonitrile] |
| 10 to 50 | CC(C)(OCCOP(C)(C)=O)c1cnc(N2C[C@@]3(CCC[C@](C)(Cn4cnc5ccc(C#N)cc54)C3)OC2=O)cn1 [Example 164, 2-((2-(5-((5S,7S)-7-((6-cyano-1H-benzo[d]imidazol-1-yl)methyl)-7-methyl-2-oxo-1-oxa-3-azaspiro[4.5]decan-3-yl)pyrazin-2-yl)propan-2-yl)oxy)ethyl dimethylphosphinate] |
| 0.1 to 10 | Cc1cc(-c2ccc(F)cn2)ncc1N1C[C@@]2(CCC[C@](C)(Cn3cnc4ccc(C#N)cc43)C2)OC1=O [Example 165, 1-(((5S,7S)-3-(5′-fluoro-4-methyl-[2,2′-bipyridin]-5-yl)-7-methyl-2-oxo-1-oxa-3-azaspiro[4.5]decan-7-yl)methyl)-1H-benzo[d]imidazole-6-carbonitrile] |
| 0.1 to 10 | Cc1cc(N2CCOCC2)ncc1N1C[C@@]2(CCC[C@](C)(Cn3cnc4ccc(C#N)cc43)C2)OC1=O [Example 166, 1-(((5S,7S)-7-methyl-3-(4-methyl-6-morpholinopyridin-3-yl)-2-oxo-1-oxa-3-azaspiro[4.5]decan-7-yl)methyl)-1H-benzo[d]imidazole-6-carbonitrile] |
| 0.1 to 10 | CC(C)(O)c1ccc(N2C[C@@]3(CCC[C@](C)(Cn4cnc5ccc(C#N)cc54)C3)OC2=O)nc1 [Example 167, 1-(((5S,7S)-3-(5-(2-hydroxypropan-2-yl)pyridin-2-yl)-7-methyl-2-oxo-1-oxa-3-azaspiro[4.5]decan-7-yl)methyl)-1H-benzo[d]imidazole-6-carbonitrile] |
| 10 to 50 | CC(C)(CO)c1cnc(N2C[C@@]3(CCC[C@](C)(Cn4cnc5ccc(C#N)cc54)C3)OC2=O)cn1 [Example 168, 1-(((5S,7S)-3-(5-(1-hydroxy-2-methylpropan-2-yl)pyrazin-2-yl)-7-methyl-2-oxo-1-oxa-3-azaspiro[4.5]decan-7-yl)methyl)-1H-benzo[d]imidazole-6-carbonitrile] |
